In US8999937B2, “Glucocorticoid induced leucine zipper mimetics as therapeutic agents in multiple sclerosis” (Indiana University Research and Technology Corporation, priority 2011, dated 2015):
Entries after “also recorded” stand apart in the source; their conditions may differ.

How the values were obtained:
[1] = molecular target: T1, recombinant human p65 protein (r-p65) (Homo sapiens, UniProt Q04206); experiment: GILZ:p65 direct binding and kinetics by modified ELISA
T1 construct: control-P at varying concentrations was probed with full-length r-p65-DDK; purchased OriGene Technologies Inc., Rockville, Md
Description: To detect direct interaction, ELISA plates were coated with increasing concentrations of the GILZ protein and probed with increasing concentrations of the p65 protein followed by detection with anti-human GILZ mAb. To detect binding of cellular GILZ and p65, ELISA plates were coated with the p65 protein (20 ng), and probed with the cytoplasmic fraction from T cells. Binding of the plate bound p65 with the cytoplasmic GILZ protein was detected with anti-human GILZ mAb. Alternatively, wells coated with the GILZ-GST protein (20 ng) were probed with the nuclear fractions from T cells and the GILZ:nuclear p65 binding was detected with anti-human p65 mAb. The bound complex was detected with TNB at absorbance of 450 nm.
(§1) Binding of the plate-bound r-p65 with cytoplasmic GILZ and the plate-bound GILZ with nuclear p65 was detected with anti-GILZ mAb or anti-p65 mAb, respectively, followed by trinitrobenzene substrate. […] Absorbance at 650 nm was measured between 0 and 300 s with a mixing time of 0.30 s and a 5-s interval between readings.

R-EAE in SJL/J mice = experiment: Relapsing remitting EAE (R-EAE) in SJL/J mice, clinical score; assay type: in vivo, mouse
Description: Relapsing remitting EAE is induced in 8-10-week old female SJL/J mice. The mice were immunized with 100 μg of PLP139-151 in PBS emulsified 1:1 in complete Freund's adjuvant supplemented with 200 μg of Mycobacterium tuberculosis H37RA (Difco Laboratories, Detroit, Mich.) distributed over four sites on the lateral hind flanks subcutaneously. Mice were injected with 100 ng of pertussis toxin (List Biological Laboratories, Campbell, Calif.) intraperitonealy on the day of immunization and 2 days later (Srinivasan et al., (2002) J Immunol, 169(4):2180-8).
As opposed to the B10.PL mice which often develop monophasic EAE, PLP139-151 immunized SJL/J mice develop relapsing remitting form of EAE (R-EAE) (Dudhgaonkar et al. (2009) J Immunol, 183(11):7505-13). Groups of SJL/J mice were induced EAE as described above. Animals were observed daily for clinical signs and scored as follows: 0, no clinical signs; 1, limp tail or waddling gait with tail tonicity; 2, waddling gait with limp tail (ataxia); 2.5, ataxia with partial paralysis of one limb; 3, partial hind-limb paralysis; 3.5, full paralysis of one limb with partial paralysis of the second limb; 4, full paralysis of two limbs; 4.5 moribund; and 5, death (1, 8). […] A group of mice received the GILZ peptide:Pep-1 complex on day 12 post-immunization. Groups of mice treated with PBS (vehicle) or Pep-1 alone were included as control.
A group of mice received the GILZ-P•Pep-1 complex 12 days post-immunization. rh-GILZ was used to evaluate the effect in R-EAE.

Circular dichroism = assay type: physicochemical
Description: CD measurements can be recorded on a JASCO model, J-710 spectropolarimeter, (Jasco Inc, Easton, Md.) as described previously. The samples can be prepared by dissolving lyophilized GILZ peptide or control peptides at 100 μM concentration in citrate buffer (1 mM sodium citrate, 1 mM sodium borate, 1 mM sodium phosphate, 15 mM NaCl) with pH adjusted at 7.0. CD spectra can be collected using a 1 cm path-length quartz cuvette at 50° C. or 90° C. in the 190- to 270-nm wavelength range with a 0.5 nm resolution and a scan rate of 200 nm/min. Reported spectra can represent the unsmoothed averages of 30 scans. Each spectrum can be measured three times with individually prepared solutions. Raw CD signals (in millidegrees) can be converted to mean residue molar ellipticity (θ) in deg cm^2/dmol using the formula [θ] MRW 5 [θ]obs/101cn, where θ obs is the observed ellipticity, 1 is the pathlength in centimeters, c is the molar concentration of peptide, and n is the number of residues in the peptide. To determine 0% PPII helical content CD spectra can be recorded with GILZ-peptide dissolved in 5M CaCl2.

[2] = tested on: CD4+ splenocytes/LNC from R-EAE mice; experiment: Ex vivo cytokine secretion (ELISA) by CD4+ cells from treated R-EAE mice; assay type: in vivo, mouse
Description: Data represent average±S.D. from two experiments (n=9/group). (C)-(H) show GILZ-peptide treatment suppresses Th1 cytokines in R-EAE. […] C, proliferative responses of CD4+ splenocytes are plotted as Δcpm±S.E. #, p<0.05 as compared with the responses of cells from vehicle-treated mice. Supernatant collected at 48 h from separate CD4+ splenocyte cultures were assessed for (D) IL-12, (E) IFN-γ, (F) IL-17, (G) IL-10, and (H) TGF-β by ELISA. * and # represent p<0.05 as compared with vehicle or control peptide-treated groups, respectively.
Supernatants collected 48 hrs later were assessed for cytokines using Opt EIA kits according to the manufacturer's recommendations (BD PharMingen). Differences between the groups in the mean clinical score and cytokine secretion were determined by a one-way ANOVA with Tukey's posthoc. Results were considered significant at p<0.05.
Supernatants collected at 24 and 48 h were assessed for specific cytokines using the OptEIA kits (BD Biosciences). Proliferation assays included parallel cultures for 72 h with a final 18-h pulse with [^3H]thymidine measured by liquid scintillation counting (Microbeta, Turku, Finland).

p65ΔC14 = molecular target: T2, p65ΔC14 (Homo sapiens, UniProt Q04206); experiment: GILZ binding ELISA with partial length p65; settings: detected with anti-p65 mAb
T2 construct: purchased Active Motif, Carlsbad, Calif
Description: as §1

[3] = tested on: PPD stimulated human CD4+ T cells; experiment: Cytokine secretion by PPD-stimulated human CD4+ T cells (ELISA); assay type: cell-based; settings: 24 h, complex with chariot peptide
Description: Purified CD4+ T cells isolated from PBMC by magnetic cell separation (Miltenyi Biotech, Germany), were seeded with irradiated autologous PBMC (T cells depleted) as APC at 1:1.5 ratio in serum-free RPMI (with 5% penicillin/streptomycin), and stimulated with PPD (20 μm/ml) alone or in the presence of dexamethasone (100 μm/ml) or 20:1 M complex of chariot peptide with GILZ protein (0.7 μm/ml)/anti-human GILZ mAb (1 μm/ml)/anti-human p65 mAb (1 μm/ml)/control antibody (1 μm/ml). Supernatants collected at 24 hrs were assessed for cytokines including human IFN-γ, TNF-α, IL-12 p40 and IL-10 using BD OptEIA™ kits. Differences in the secretion of cytokines between the groups were determined by one way ANOVA followed by Tukey's post-hoc analysis (see FIG. 4).

[4] = Example 1, entire period of observation
[5] = Example 1, i.p. on day 0 with Pep-1, peptides 500 μg, r-GILZ 2 ng, n=4/group
[6] = Example 2, single i.p. dose on day 0 with Pep-1, peptides 500 μg, r-GILZ 2 ng, n=9/group
[7] = Example 1, LNC 45 days post-immunization, PLP139-151 and/or MBP87-99, vs vehicle/control peptide
[8] = Example 1, LNC 45 days post-immunization, PLP139-151 or MBP87-99, vs vehicle/control peptide
[9] = MBP87-99 stimulation, mice treated on day 0
[10] = PLP139-151 re-stimulation, mice treated on day 0
[11] = mice treated 12 days post-immunization

T1 sequence (Q04206 whole entry): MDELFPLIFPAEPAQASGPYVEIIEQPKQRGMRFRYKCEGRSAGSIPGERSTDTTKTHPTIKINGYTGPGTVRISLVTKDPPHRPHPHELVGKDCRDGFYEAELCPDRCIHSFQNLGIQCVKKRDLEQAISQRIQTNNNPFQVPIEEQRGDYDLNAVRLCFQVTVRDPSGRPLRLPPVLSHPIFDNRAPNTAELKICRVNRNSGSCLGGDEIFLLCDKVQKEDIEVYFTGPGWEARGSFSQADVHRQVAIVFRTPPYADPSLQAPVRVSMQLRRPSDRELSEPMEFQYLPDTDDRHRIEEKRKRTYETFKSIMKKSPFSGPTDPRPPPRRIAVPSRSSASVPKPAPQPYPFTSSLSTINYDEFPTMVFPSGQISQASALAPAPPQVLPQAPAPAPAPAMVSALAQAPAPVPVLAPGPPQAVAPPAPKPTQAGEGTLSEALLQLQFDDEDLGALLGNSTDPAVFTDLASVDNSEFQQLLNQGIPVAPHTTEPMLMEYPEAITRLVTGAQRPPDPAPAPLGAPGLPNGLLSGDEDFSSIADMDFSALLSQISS
T2 sequence (Q04206 1-537 limits assumed, stated change not applied): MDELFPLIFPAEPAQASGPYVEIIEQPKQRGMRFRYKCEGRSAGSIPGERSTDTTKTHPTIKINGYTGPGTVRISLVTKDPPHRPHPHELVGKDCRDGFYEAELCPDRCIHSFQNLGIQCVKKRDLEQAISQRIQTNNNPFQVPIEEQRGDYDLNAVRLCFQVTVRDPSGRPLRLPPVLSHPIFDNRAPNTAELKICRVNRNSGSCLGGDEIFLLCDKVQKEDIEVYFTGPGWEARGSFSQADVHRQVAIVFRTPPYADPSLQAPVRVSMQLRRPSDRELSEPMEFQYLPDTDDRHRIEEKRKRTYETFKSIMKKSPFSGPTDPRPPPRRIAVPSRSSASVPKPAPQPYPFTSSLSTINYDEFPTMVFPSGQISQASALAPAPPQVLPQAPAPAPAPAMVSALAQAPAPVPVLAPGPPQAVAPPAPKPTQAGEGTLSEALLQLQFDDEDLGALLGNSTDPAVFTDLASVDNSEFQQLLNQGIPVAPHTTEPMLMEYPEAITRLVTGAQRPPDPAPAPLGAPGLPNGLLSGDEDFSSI

Substance | clinical relapse after initial remission (R-EAE in SJL/J mice; [4]) | mean clinical score (severity of clinical disease) (R-EAE in SJL/J mice; [5]) | clinical relapse after initial remission (R-EAE in SJL/J mice; Example 2) | mean total clinical score (R-EAE in SJL/J mice; [6]) | average clinical score per day, in words (R-EAE in SJL/J mice; Example 2, vs control groups) | IL-10 secretion [2, 7] | IFN-γ secretion [2, 8] | IL-12 secretion [2, 8] | TNF-α secretion [2, 8] | IL-10 secretion [2, 9] | TGF-β secretion [2, 9] | IFN-γ secretion [2, 10] | IL-12 secretion [2, 10] | IL-17 secretion [2, 10] | further results
Ac-CLSPEEPAPESPQVPEAPGGSAV-NH2 [GILZ-P] | exhibited no relapse | 0.56+/−0.21 | exhibited minimal relapse | 2.25±0.72 | significantly lower | higher | significantly reduced | significantly reduced | significantly reduced | 1850.8 ± 90 pg/mL | 33.31 ± 4 pg/mL | 96.5 ± 7.1 pg/mL | 12.7 ± 0.47 pg/mL | 10.85 ± 0.3 pg/mL | time at which maximum absorbance was reached in binding with r-p65 [1]: 38 s; adjusted velocity of the interaction with r-p65 ([1]; at 1:4 molar concentrations): 25 s⁻¹; p65 binding (absorbance) of plate-bound agent probed with full-length r-p65 ([1]; varying coating concentrations, 40 μM r-p65): decreased with decreasing concentrations; mean clinical score (severity of clinical disease) (R-EAE in SJL/J mice; Example 1, GILZ peptide 500 μg i.p. on day 12 post-induction): 1.78+/−1.01; average clinical score per day, in words (R-EAE in SJL/J mice; Example 1, day 0/day 12 treatment vs control groups, listed as GILZ peptide): significantly reduced scores; average clinical score per day, in words (R-EAE in SJL/J mice; Example 1, day 0/day 12 treatment vs control groups, listed as GILZ-peptide): significantly lower; mean total clinical score (R-EAE in SJL/J mice; Example 2, Pep-1•GILZ-P single dose on day 12): 15.75±4.85; mean residue molar ellipticity θ, maximum at 238 nm (Circular dichroism; 50° C.): 1.12×10^3 deg cm^2 dmol^−1; mean residue molar ellipticity θ, minimum at 200 nm (Circular dichroism; 50° C.): −20.03×10^3 deg·cm^2/dmol; mean residue molar ellipticity θ @ 204 nM (Circular dichroism; 90° C.): −11.37×10^3 deg cm^2/dmol; mean residue ellipticity minimum at 205 nM (Circular dichroism; in 5M CaCl2): −8.84×10^3 deg cm^2/dmol; IFN-γ secretion [2, 9]: 97.4 ± 6.9 pg/mL; IL-12 secretion [2, 9]: 28.4 ± 1.6 pg/mL; IL-17 secretion [2, 9]: 10.43 ± 0.4 pg/mL; IL-10 secretion ([2]; PLP139-151 stimulation, mice treated on day 0): 2316 ± 52.9 pg/mL; IL-12 secretion, in words [2, 11]: significantly lower; reduction in IFN-γ, in words [2, 11]: not significant; absorbance of plate-bound agent probed with p65ΔC14 (p65ΔC14): Absorbance over background was not observed
r-GILZ: recombinant glucocorticoid induced leucine zipper protein (Abnova; OriGene with C-terminal DDK) | exhibited no relapse | 0.17+/−0.14 | exhibited minimal relapse | 7.13±2.8 | significantly lower | higher | significantly reduced | significantly reduced | significantly reduced | 1667 ± 63.7 pg/mL | 31.7 ± 0.8 pg/mL | 100.5 ± 6.8 pg/mL | 22.5 ± 01.05 pg/mL | 10.66 ± 0.2 pg/mL | IL-10 secretion [3]: significantly elevated; secretion of IFN-γ [3]: significantly reduced; secretion of IL-12 [3]: significantly reduced; average clinical score per day, in words (R-EAE in SJL/J mice; Example 1, day 0/day 12 treatment vs control groups): significantly reduced scores; also recorded: significantly lower
